Reference: US11612586B2, “Indole regulation of antigen presenting cells” (THE TEXAS A&M UNIVERSITY SYSTEM, priority 2016, dated 2023)

Legend:
Format in all cases: cell-based, mouse
Erk [1] = assay: phospho-Erk signaling in BMDMs; settings: 1 mM TDMM 24 hours, LPS 1 ug/ml 15 minutes
Procedure: (§1) The PI3K/Akt and MAPK/Erk signaling pathways regulate many cellular processes including survival, apoptosis, growth, and cytokine production. […] Specifically, BMDMs were treated with indole (1 mM) or DMF control for 18 hours, then stimulated with LPS (10 ug/ml) or CpG (5 uM) for 30 minutes. Cells were stained for phospho-Akt or phospho-Erk and analyzed by flow cytometry.
(§2) The inventors performed a series of assays where bone marrow derived macrophages (BMDMs), bone marrow derived dendritic cells (BMDCs), and splenic dendritic cells (splenic DCs), were exposed to a series of TDMMs, including indole, indole-3-acetate (I3AT), 5-hydroxyindole (5HI), and indole-3-pyruvate (I3P), as well as indole-3-carbinol (I3C; a plant derived compound) to be used for a positive control (1 mM for 24 hours). The BMDMs and BMDCs were stimulated with LPS for 4 hours and assayed at day 7 for expression of various pro-inflammatory cytokines. In a similar assay, the BMDMs and BMDCs were stimulated with LPS or CpG, respectively, for 15 minutes and assayed for pAKT and pERK signaling, which is a reflection of pro-inflammatory response.

Stat3 = assay: IL-6 induced pSTAT3 signaling in splenic DCs; settings: for IL-6 induced pSTAT3 signaling in splenic DCs: TDMM 24 hours, 10 ng/ml IL-6 30 minutes; for IL-6 induced pSTAT3 expression, CD4+ DCs / IL-6 induced pSTAT3 expression, CD4− DCs: splenic DCs, 1 mM TDMM 24 hours, IL-6 (10 ng/ml) 30 minutes
Procedure: Briefly, flow cytometric analysis was performed on splenic DCs conditioned with the indicated TDMMs for 24 hours and then subsequently stimulated with 10 ng/ml IL-6 for 30 minutes.

Akt [2] = assay: phospho-Akt in BMDCs, flow cytometry; settings: BMDCs, 1 mM TDMM 24 hours, CpG (5 uM) 15 minutes
Procedure: Flow cytometric analysis was performed on BMDCs conditioned with indole from day 3 of culture and subsequently stimulated with LPS (5 ug/ml) for the given times. Cells were stained for phospho-Akt and analyzed by flow cytometry.
Flow cytometric analysis was performed on BMDCs from WT or AhrKO mice cultured in the presence of indole (1 mM) from day 3. DCs were stimulated with LPS (5 ug/ml) for the given times and stained for phospho-Akt, which was detected by flow cytometry. Percentage of pAkt-positive DCs indicated. Representative data is from one of three independent experiments.
Another central mediator of cellular signaling is the serine/threonine kinase, Akt (also referred to as protein kinase B), which regulates cellular processes including metabolism, growth, proliferation, and survival. The Akt pathway is activated by numerous receptor tyrosine kinases, cytokine receptors, G-protein-coupled receptors, and other molecules which activate the lipid kinase PI3K and result in production of phosphatidylinositol (3,4,5)-trisphosphate (PIPS). This second messenger acts as a docking site at the plasma membrane for Akt where phosphorylation and activation occurs. Akt is located upstream of NF-kB and can induce NF-kB signaling via phosphorylation of IKKα and Tp12. The effect of indole on Akt phosphorylation was assessed to determine whether indole's inhibition of NF-kB might be a secondary effect due to modulation of an upstream target.
as §2

Akt [3] = assay: phospho-Akt signaling in BMDMs; settings: 1 mM TDMM 24 hours, LPS 1 ug/ml 15 minutes
Procedure: as §1, §2

IL-12 [4] = assay: IL-12 production in BMDCs, intracellular staining, flow cytometry; settings: BMDCs, 1 mM TDMM 24 hours, LPS (1 ug/ml) 4 hours
Procedure: (§3) Intracellular staining was performed to assess TNF (FIG. 3A) and IL-12 (FIG. 3B) production.
(§4) Briefly, bone marrow was harvested from femurs of mice and cultured for 7 days in the presence of DC-skewing cytokines, GM-CSF and IL-4. […] The pro-inflammatory cytokines, IL-6 and IL-12, were specifically queried. […] Immune cells communicate largely through the production of soluble factors including cytokines, and DCs detect these signals and determine their effector functions accordingly.
as §2

TNF [5] = assay: TNF production in BMDCs, intracellular staining, flow cytometry; settings: 1 mM TDMM 24 hours, LPS (1 ug/ml) 4 hours
Procedure: Intracellular staining was performed to assess TNF production.
as §3, §4, §2

Erk [6] = assay: pERK signaling in BMDCs; settings: 1 mM TDMM 24 hours, CpG (5 uM) 15 minutes
Procedure: as §2

TNF [7] = assay: TNF production in BMDMs, intracellular staining, flow cytometry; settings: BMDMs, 1 mM TDMM 24 hours, LPS 1 ug/ml 4 hours
Procedure: (§5) BMDMs were treated with indole or DMF control for 18 hours or 4 hours, followed by stimulation with LPS (2 ug/ml or 250 ng/ml) for 4 hours in the presence of Golgiplug. BMDMs were then stained for intracellular TNF or IL-12 and analyzed by flow cytometry.
(§6) First, pro-inflammatory cytokine production in macrophages was investigated. […] In the DC study described herein, DCs were typically conditioned with indole during their development from bone marrow precursors in order to mimic the proximity of DC progenitor cells to indole in the intestinal microenvironment during development. […] BMDMs were treated for 18 hours with indole, followed by a 4 hour stimulation with either a very high (2 ug/ml) or low (250 ng/ml) dose of LPS.
(§7) Additionally, to determine if recently arrived macrophage precursors might also be affected, BMDMs were next treated for just 4 hours with indole, followed by a […] stimulation with the same LPS concentrations.
(§8) To address the question of indole and AhR dependence in macrophages, experiments using BMDMs derived from AhR-knockout mice were run alongside wild-type littermate controls. Specifically, flow cytometric analysis of BMDMs was performed on WT or AhR-KO mice and treated with indole or DMF control for 18 hours. BMDMs were stimulated for 4 hours with LPS (50 ng/ml) in the presence of Golgiplug, then stained for intracellular TNF (left panels) and IL-12 (right panels).
as §2
(§9) Bone marrow was harvested as described above and cultured at a density of 1×10^6 cells in 10 ml complete media supplemented with 10 ng/ml M-CSF (Peprotech) in 100 mm×15 mm petri dishes. Media with cytokine was replenished on day 3. Adherent and semi-adherent cells were recovered on day 7, plated, and treated with indole prior to downstream experiments.

IL-12 [8] = assay: IL-12 production in BMDMs, intracellular staining, flow cytometry; settings: BMDMs, 1 mM TDMM 24 hours, LPS 1 ug/ml 4 hours
Procedure: as §5, §6, §7, §8, §2, §9

CCR9 [9] = assay: CCR9 surface expression on BMDCs; settings: BMDCs cultured from day 3 with indole (1 mM) or retinoic acid (1 μM), day 7
Procedure: (§10) FIGS. 12A and 12B graphically illustrate that indole induces CCR9 and B220 on DCs. BMDCs were cultured in the presence of indole (1 mM), retinoic acid (1 μM), or DMF solvent control from day 3. On day 7, DCs were surface stained for expression of CCR9 and B220 and analyzed by flow cytometry. […] Mean of three independent experiments. * indicates p<0.05 for one-way ANOVA followed by Dunnett's post-test.
Dendritic cell subsets bear numerous surface antigens that regulate their migration and localization. Because indole is produced in the gut and appears to induce anti-inflammatory properties in DCs (as described above), it was hypothesized that indole might affect migration and retention in mucosal tissues. Thus, expression of the gut homing marker, chemokine receptor CCR9 was investigated. […] Retinoic acid (RA) was included as a positive control. RA is present in murine plasma at approximately […] and is predicted to exist at higher concentrations in tissue microenvironments in vivo. Thus, 1 uM was used as a conservative estimate of relevant physiological concentration. Indole's effect was even more profound than that of retinoic acid, a known inducer of mucosal homing markers on T cells (see, e.g., Iwata M, et al. (2004) Retinoic Acid Imprints Gut-Homing Specificity on T Cells. Immunity 21(4):527-538). […]

naïve CD4+CD25− T cells [10] = assay: T cell activation in the presence of BMDC supernatant: Treg induction; settings: T cells on α-CD3/α-CD28 plates, 72 hours
Procedure: Specifically, naïve CD4+CD25− T cells were FACS-sorted and plated in 96-well, α-CD3 and α-CD28-coated tissue culture plates in a volume of 100 ul cell culture media. […] T cells with DC supernatant were cultured for 72 hours in the presence or absence of exogenous TGF-β. Subsequently, cells were stained for the transcription factor Foxp3 and analyzed by flow cytometry.
Naïve CD4+CD25− T cells were FACS-sorted as described above and plated in 96-well, αCD3 and αCD28-coated tissue culture plates in a volume of 100 ul cell culture media. An equal volume of spent BMDC supernatant was added, in the presence or absence of exogenous TGF-β, and T cells were cultured for 72 hours. To generate supernatants, day 3-treated BMDCs were collected on day 7, washed extensively and plated in a 48-well cell culture plate at 5×10^5 cells per well in 500 ul fresh complete media for 24 hours in the presence or absence of 1 ug/ml LPS. Plates were then centrifuged and supernatants were collected, filtered, and stored at −20° C. until use.

naïve CD4+CD25− T cells [11] = assay: DC-T cell co-culture without cell contact (Transwell): Treg induction; settings: exogenous TGF-β added, 3 days
Procedure: Transwell tissue culture plates were used to perform co-cultures with a physical barrier between the two cell types. Naïve CD4+CD25− T cells were FACS-sorted and placed in the bottom of a 24-well Transwell cell culture plate with 0.4 uM polycarbonate membranes that had been coated with α-CD3 (5 ug/ml) and α-CD28 (2 ug/ml). TGF-β was added at the indicated concentrations. […] The T cell to DC ratio was 2:1, as in other co-culture experiments. After 3 days, T cells were stained for Foxp3 and analyzed by flow cytometry.
Naïve CD4+CD25− T cells were FACS-sorted and placed in the bottom of a 24-well Transwell cell culture plate with 0.4 uM polycarbonate membranes (Corning) that had been coated with 5 μg/mL αCD3 (BioXcell 145-2C11) and 2 μg/mL αCD28 (BioXcell 37.51). TGF-β was added at the indicated concentrations. The insert was placed in the well and washed, Day 3-treated BMDCs were added to the top chamber such that culture media was shared, but the cell types were kept physically separate. The T cell to DC ratio was 2:1, as in other co-culture experiments.

CCR9 [12] = assay: CCR9 induction on naïve T cells by conditioned DCs; settings: no exogenous RA in the co-culture
Procedure: FIG. 18 graphically illustrates that indole-conditioned DCs induce CCR9 on naïve T cells upon activation. Naïve CD4+CD25− T cells from OT-II mice were co-cultured with OVA323-339 peptide-loaded BMDCs for 72 hours in the presence of RA as indicated. BMDCs were previously treated with indole, RA, or DMF from day 3. Following 3 days of co-culture, surface staining was performed for flow cytometric analysis.
Based on the observation that indole induces gut homing markers on developing DCs, it was queried whether indole-conditioned DCs could also confer gut homing markers upon naïve CD4+ T cells. The antigen-specific T cell activation model was used to address this question, and a titration of RA was included as a positive control to induce CCR9. […] Just 10 nM of RA enabled indole-DC co-cultures to achieve over 50% of T cells expressing CCR9 which was similar to RA-DC positive controls, whereas DMF-DC co-cultures with the same concentration of RA added achieved only 10% of CCR9+ T cells.
Naïve CD4+CD25− T cells of spleen and lymph nodes from OT-II mice were isolated by negative selection via column purification using the Naïve CD4+ T Cell Isolation Kit (Miltenyi Biotec). Naïve CD4+ T cells (>96% pure) were labeled with Cell Proliferation Dye efluor450 (eBioscience) following manufacturer's instructions then co-cultured with OVA peptide-loaded BMDCs at a ratio of 2:1 for 72 hours in a 96-well round-bottom tissue culture plate. BMDCs were previously treated with indole or RA from day 3. On day 7, DCs were washed extensively prior to being loaded with OVA323-339 peptide (10 ug/ml) for 1 hour at 37° C. BMDCs were then washed three times and plated with naïve CD4+ T cells. RA or TGFβ were added to co-cultures as indicated. Following 3 days of culture, cells were stained with antibodies to CD4, CCR9, and LPAM-1 (α4β7). Intracellular staining for Foxp3 was performed using a Foxp3 staining kit (eBioscience). The remaining CD4+ helper T cell lineages Th1, Th2, and Th17 were identified by their cytokine production. […]

B220 (CD45R) = assay: B220 surface expression on BMDCs; settings: BMDCs cultured from day 3 with indole (1 mM) or retinoic acid (1 μM)
Procedure: as §10
An indole-induced upregulation of the B220 (CD45R) antigen was also observed (FIGS. 12A and 12B), which is widely used to distinguish the plasmacytoid DC lineage and is believed to contribute to gut homing. However, more recently B220 has been reported to distinguish a DC subset more closely developmentally related to conventional rather than plasmacytoid DCs and a precursor to resident CD8+ and CD8− conventional DCs.

Row | Structure (SMILES) | pERK (Erk [1]) | IL-6 induced pSTAT3 signaling in splenic DCs (Stat3) | IL-6 induced pSTAT3 expression, CD4+ DCs (Stat3) | IL-6 induced pSTAT3 expression, CD4− DCs (Stat3) | pAKT (Akt [2]) | pAKT (Akt [3]) | IL-12 (IL-12 [4]) | TNF (TNF [5]) | pERK (Erk [6]) | TNF (TNF [7]) | IL-12 (IL-12 [8]) | surface expression of CCR9 on conditioned DCs (CCR9 [9]) [%] | Treg induction by supernatant of conditioned BMDCs relative to solvent control DCs (naïve CD4+CD25− T cells [10]) | Treg induction by conditioned DCs without cell contact over solvent controls (naïve CD4+CD25− T cells [11]) [fold] | induction of CCR9 on naïve T cells by conditioned BMDCs alone (CCR9 [12]) | B220 (CD45R) expression on BMDCs (B220 (CD45R))
1 | Oc1ccc2[nH]ccc2c1 [5HI, 5-hydroxyindole] | reduced and ↓ | inhibits | ↓ | ↓ | reduced and ↓ | reduced and ↓ | reduction and ↓ | reduction and ↓↓ | reduced and ↓ |  |  |  |  |  |  | 
2 | O=C(O)Cc1c[nH]c2ccccc12 [I3AT, indole-3-acetate] | No effect | inhibits | ↓ | ↓ | reduced and ↓ | No effect | reduction and ↓ | reduction and ↓ | reduced and ↓ | No effect | reduction and ↓ |  |  |  |  | 
3 | OCc1c[nH]c2ccccc12 [I3C, indole-3-carbinol, reference compound] | ↓↓↓↓ |  | ↓↓↓↓ | ↓↓↓↓ | ↓↓↓↓ | ↓↓ | ↓↓↓ | ↓↓↓↓ | ↓↓↓↓ | ↓↓↓↓ | ↓↓↓↓ |  |  |  |  | 
4 | O=C(O)C(=O)Cc1c[nH]c2ccccc12 [I3P, indole-3-pyruvate] | No effect | inhibits | ↓ | ↓ | reduced and ↓ | No effect | reduction and ↓ | reduction and ↓ | reduced and ↓ |  |  |  |  |  |  | 
5 | CC1=C(/C=C/C(C)=C/C=C/C(C)=C/C(=O)O)C(C)(C)CCC1 [RA, all-trans retinoic acid, reference compound] |  |  |  |  |  |  |  |  |  |  |  | 22 | approximately 2 fold | 3 | sufficient | does not induce B220
